Measured values from patent US9096593B2, “Compounds and methods for kinase modulation, and indications therefor” (Plexxikon Inc., priority 2009, dated 2015).
Like-named read-outs stand apart in the source and are kept apart here.

How the values were obtained:
BCR-FMS/BaF3 cells = BCR-FMS/BaF3 cells (Homo sapiens, UniProt P07333); assay: BCR-FMS/BaF3 cell proliferation assay (ATPlite); format: cell-based
In short: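 Proliferation read by ATPlite luminescence after 3 days' exposure (37 °C, 5% CO2) to compound in 1:3 dilutions, eight points, maximum 10 μM final, DMSO control.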

BCR-KIT/BaF3 cells = BCR-KIT/BaF3 cells (Homo sapiens, UniProt P10721); assay: BCR-KIT/BaF3 cell proliferation assay (ATPlite); format: cell-based; details: read-out: BCR/BaF3 (IC50 μM) Kit
Experimental: Compounds are assessed in a variety of cell based assays. For example BCR-FMS/BaF3, BCR-KIT/BaF3, M-NFS-60, M-07e, and BAC1.2F5 cell proliferation assays are used to assess inhibitory activity of Fms or Kit and MV-4-11 cell proliferation assay is used to assess inhibitory activity in Flt-3. Reagent and assay conditions are as follows: • BCR-FMS/BaF3 and BCR-KIT/BaF3 cells: • Maintained in RPMI containing 10% FBS, 1% PenStrep, 1% NEAA, and 1% L-Glutamine, supplemented with 1 mg/mL G418 and 5% WEHI-CM (or recombinant murine IL-3). • Confluent cells are split 1:50 to 1:100 every 3-4 days. • M-NFS-60 cells (ATCC #CRL-1838): • Maintained in RPMI containing 10% FBS, 1% Hepes, 1% NaPyruvate, and 0.45% Glucose, supplemented with 62 ng/mL murine M-CSF. • Confluent cells are split 1:20 every 3-4 days. • M-07e cells (DSMZ #ACC 104): • Maintained in IMDM containing 10% FBS, supplemented with either 200 ng/mL human SCF or […] SCF (R&D Systems 255-SC). • Confluent cells are split 1:5 to 1:10 every 3-4 days. • BAC1.2F5 cells: • Maintained in Alpha-MEM containing 10% Newborn Calf Serum (Invitrogen #26010-074) supplemented with 36 ng/mL murine M-CSF. • Confluent cells are split 1:4 every 3-4 days. • MV-4-11 cells: • Maintained in Iscove's Modified Dulbecco's Medium containing 10% FBS. • Confluent cells are split 1:4 every 3-4 days. On day 1, cells are counted, then centrifuged in a conical tube for 5 minutes at 1000 rpm. The supernatant is removed and cells are re-suspended as follows: • BCR-FMS/BaF3 and BCR-KIT/BaF3: resuspend in growth media+1 mg/mL G418 (without WEHI/IL-3) to 2×10^5 cells/mL. • M-NFS-60: resuspend in growth media +62 ng/mL murine M-CSF to 5×10^5 cells/mL. • M-07e: resuspend in growth media +200 ng/mL human SCF to 5×10^5 cells/mL. • BAC1.2F5: resuspend in growth media +36 ng/mL murine M-CSF to 1.4×10^5 cells/mL. • MV-4-11: resuspend in growth media +10% FBS to 5×10^5 cells/mL. The cells are plated (50 μL) in each well of a 96-well dish (Corning 3610) and incubated at 37° C. in 5% CO2 overnight, cells plated to a final concentration of cells as follows: • BCR-FMS/BaF3 and BCR-KIT/BaF3: 10,000 cells per well. • M-NFS-60: 25,000 cells per well. • M-07e: 25,000 cells per well. • BAC1.2F5: 7,000 cells per well. • MV-4-11: 25,000 cells per well. On day 2, compound at a maximum concentration of 5 mM is serially diluted 1:3 for a total of 8 point titration with DMSO as a control. A 1 μL aliquot of each dilution point is added to 249 μL growth media and 50 μL is added to a well containing cells, providing 10 μM compound for the maximum concentration point. The cells are incubated for 3 days at 37° C. in 5% CO2. On day 5, ATPlite 1 step Luminescence Assay System (Perkin Elmer #6016739) is brought to room temperature along with the cell cultures. ATPlite is added to each well as follows: • BCR-FMS/BaF3 and BCR-KIT/BaF3: 25 μL per well. • M-NFS-60: 25 μL per well. • M-07c: 40 μL per well. • BAC1.2F5: 50 μL per well. • MV-4-11: 40 μL per well. The cells are incubated at room temperature for 10 minutes, then luminescence is read on Safire reader. The measured luminescence correlates directly with cell number, such that the reading as a function of compound concentration is used to determine the IC50 value.

[1] = Kit IC50/Fms IC50, BCR-KIT/BaF3 vs BCR-FMS/BaF3 cells
[2] = read-out: BCR/BaF3 (IC50 μM) Fms; BCR-FMS/BaF3 cells
[3] = read-out: Cell based (IC50 μM) BCR/BaF3 (Fms); BCR-FMS/BaF3 cells, 3 days

BCR-FMS/BaF3 cells, sequence (P07333 20-972 limits assumed, change not shown): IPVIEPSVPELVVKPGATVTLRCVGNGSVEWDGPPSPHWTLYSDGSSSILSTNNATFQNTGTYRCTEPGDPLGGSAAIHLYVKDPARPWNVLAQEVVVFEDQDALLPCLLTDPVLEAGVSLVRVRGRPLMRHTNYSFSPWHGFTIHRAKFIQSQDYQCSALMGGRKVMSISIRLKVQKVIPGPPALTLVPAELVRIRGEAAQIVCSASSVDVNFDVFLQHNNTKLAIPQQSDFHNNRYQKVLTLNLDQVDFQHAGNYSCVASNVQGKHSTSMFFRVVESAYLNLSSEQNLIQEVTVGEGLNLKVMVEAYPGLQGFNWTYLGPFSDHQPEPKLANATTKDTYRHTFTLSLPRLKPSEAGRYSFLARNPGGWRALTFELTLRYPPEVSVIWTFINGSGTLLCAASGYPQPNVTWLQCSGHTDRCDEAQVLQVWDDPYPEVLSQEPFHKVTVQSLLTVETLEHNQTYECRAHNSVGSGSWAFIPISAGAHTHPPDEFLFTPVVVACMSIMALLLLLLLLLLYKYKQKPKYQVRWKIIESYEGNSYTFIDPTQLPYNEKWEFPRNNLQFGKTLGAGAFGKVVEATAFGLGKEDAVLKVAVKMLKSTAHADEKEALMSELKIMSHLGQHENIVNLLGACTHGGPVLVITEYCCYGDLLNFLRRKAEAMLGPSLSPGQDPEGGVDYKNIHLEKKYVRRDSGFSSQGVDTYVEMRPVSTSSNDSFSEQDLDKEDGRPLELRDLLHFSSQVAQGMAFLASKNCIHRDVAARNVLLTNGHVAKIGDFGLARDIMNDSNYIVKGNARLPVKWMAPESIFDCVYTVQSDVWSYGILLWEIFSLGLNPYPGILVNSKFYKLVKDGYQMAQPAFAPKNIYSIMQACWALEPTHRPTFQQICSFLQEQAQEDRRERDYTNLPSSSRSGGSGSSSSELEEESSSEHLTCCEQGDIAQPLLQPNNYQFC
BCR-KIT/BaF3 cells, sequence (P10721 26-976 limits assumed, change not shown): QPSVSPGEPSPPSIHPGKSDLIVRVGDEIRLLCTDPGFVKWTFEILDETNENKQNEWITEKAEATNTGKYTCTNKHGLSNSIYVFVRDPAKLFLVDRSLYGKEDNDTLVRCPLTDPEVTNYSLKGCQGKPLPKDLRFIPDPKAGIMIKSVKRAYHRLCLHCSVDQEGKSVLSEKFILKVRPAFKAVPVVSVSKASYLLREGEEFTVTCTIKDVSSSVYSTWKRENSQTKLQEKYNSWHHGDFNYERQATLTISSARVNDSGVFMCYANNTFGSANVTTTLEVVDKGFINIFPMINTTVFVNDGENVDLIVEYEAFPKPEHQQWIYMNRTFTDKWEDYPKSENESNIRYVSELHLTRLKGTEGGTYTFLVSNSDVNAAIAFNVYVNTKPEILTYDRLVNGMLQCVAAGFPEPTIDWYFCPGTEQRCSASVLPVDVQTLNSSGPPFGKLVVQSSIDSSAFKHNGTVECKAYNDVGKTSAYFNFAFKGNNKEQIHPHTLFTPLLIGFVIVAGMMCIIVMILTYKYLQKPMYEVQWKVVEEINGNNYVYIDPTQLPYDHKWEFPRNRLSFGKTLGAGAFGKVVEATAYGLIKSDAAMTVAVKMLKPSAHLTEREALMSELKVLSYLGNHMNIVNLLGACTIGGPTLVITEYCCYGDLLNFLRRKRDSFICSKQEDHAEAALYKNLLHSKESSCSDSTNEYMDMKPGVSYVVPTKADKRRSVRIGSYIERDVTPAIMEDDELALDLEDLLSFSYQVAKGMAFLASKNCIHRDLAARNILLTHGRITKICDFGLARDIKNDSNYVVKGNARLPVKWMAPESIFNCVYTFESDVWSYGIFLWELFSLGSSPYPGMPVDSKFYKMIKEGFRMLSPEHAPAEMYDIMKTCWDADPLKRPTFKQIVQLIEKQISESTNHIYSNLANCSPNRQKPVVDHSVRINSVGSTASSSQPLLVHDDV

Compound | BCR/BaF3 selectivity (Kit IC50/Fms IC50) (BCR-FMS/BaF3 cells; [1]) | IC50 (BCR-FMS/BaF3 cells; [2]) | IC50 (BCR-FMS/BaF3 cells; [3]) | IC50 (BCR-KIT/BaF3 cells) | IC50 (BCR-FMS/BaF3 cells; BCR-FMS/BaF3 cells; read-out: BCR/BaF3 (IC50 μM) Fms)
Cc1cnc2[nH]cc(Cc3ccc(NCc4ccc(C(F)(F)F)nc4)nc3F)c2c1 [Compound P-2031, [6-Fluoro-5-(5-methyl-1H-pyrrolo[2,3-b]pyridin-3-ylmethyl)-pyridin-2-yl]-(6-trifluoromethyl-pyridin-3-ylmethyl)-amine] | >20 | < 0.1 µM | < 0.1 µM | > 0.1 µM | 
COc1cnc2[nH]cc(Cc3ccc(NCc4ccc(Cl)cc4)nc3F)c2c1 [Compound P-2032, (4-Chloro-benzyl)-[6-fluoro-5-(5-methoxy-1H-pyrrolo[2,3-b]pyridin-3-ylmethyl)-pyridin-2-yl]-amine] | <20 | < 0.1 µM | < 0.1 µM | < 0.1 µM | 
COc1ccnc2[nH]cc(Cc3ccc(NCc4ccc(Cl)cc4)nc3F)c12 [Compound P-2037, (4-Chloro-benzyl)-[6-fluoro-5-(4-methoxy-1H-pyrrolo[2,3-b]pyridin-3-ylmethyl)-pyridin-2-yl]-amine] | <20 | < 0.1 µM | < 0.1 µM | > 0.1 µM | 
COc1ccc(CNc2ncc(Cc3c[nH]c4ncc(Cl)cc34)cn2)cn1 [Compound P-2038, [5-(5-Chloro-1H-pyrrolo[2,3-b]pyridin-3-ylmethyl)-pyrimidin-2-yl]-(6-methoxy-pyridin-3-ylmethyl)-amine] | >20 | < 0.1 µM | < 0.1 µM | > 0.1 µM | 
COc1cnc2[nH]cc(Cc3ccc(NCc4cccnc4OC)nc3F)c2c1 [Compound P-2043, [6-Fluoro-5-(5-methoxy-1H-pyrrolo[2,3-b]pyridin-3-ylmethyl)-pyridin-2-yl]-(2-methoxy-pyridin-3-ylmethyl)-amine] | >20 | < 0.1 µM |  | > 0.1 µM | 
COc1ncccc1CNc1ccc(Cc2c[nH]c3ncccc23)c(F)n1 [Compound P-2045, [6-Fluoro-5-(1H-pyrrolo[2,3-b]pyridin-3-ylmethyl)-pyridin-2-yl]-(2-methoxy-pyridin-3-ylmethyl)-amine] | >20 | < 0.1 µM |  | > 0.1 µM | 
COc1ncccc1CNc1ccc(Cc2c[nH]c3ncc(C)cc23)c(F)n1 [Compound P-2052, [6-Fluoro-5-(5-methyl-1H-pyrrolo[2,3-b]pyridin-3-ylmethyl)-pyridin-2-yl]-(2-methoxy-pyridin-3-ylmethyl)-amine] | >20 | < 0.1 µM |  | > 0.1 µM | 
COc1ccc(CNc2ncc(Cc3c[nH]c4ncc(C)cc34)cn2)cn1 [Compound P-2057, (6-Methoxy-pyridin-3-ylmethyl)-[5-(5-methyl-1H-pyrrolo[2,3-b]pyridin-3-ylmethyl)-pyrimidin-2-yl]-amine] | >20 | < 0.1 µM | < 0.1 µM | > 0.1 µM | 
COc1ncc(F)cc1CNc1ncc(Cc2c[nH]c3ncc(C)cc23)cn1 [Compound P-2061, (5-Fluoro-2-methoxy-pyridin-3-ylmethyl)-[5-(5-methyl-1H-pyrrolo[2,3-b]pyridin-3-ylmethyl)-pyrimidin-2-yl]-amine] | >20 | < 0.1 µM |  | > 0.1 µM | 
Cc1cnc2[nH]cc(Cc3ccc(NCc4cnccc4C(F)(F)F)nc3F)c2c1 [Compound P-2062, [6-Fluoro-5-(5-methyl-1H-pyrrolo[2,3-b]pyridin-3-ylmethyl)-pyridin-2-yl]-(4-trifluoromethyl-pyridin-3-ylmethyl)-amine] | >20 | < 0.1 µM |  | > 0.1 µM | 
FC(F)(F)c1ccncc1CNc1ccc(Cc2c[nH]c3ncc(Cl)cc23)cn1 [Compound P-2063, [5-(5-Chloro-1H-pyrrolo[2,3-b]pyridin-3-ylmethyl)-pyridin-2-yl]-(4-trifluoromethyl-pyridin-3-ylmethyl)-amine] | >20 | < 0.1 µM |  | > 0.1 µM | 
COc1ncc(F)cc1CNc1ncc(Cc2c[nH]c3ncc(Cl)cc23)cn1 [Compound P-2064, [5-(5-Chloro-1H-pyrrolo[2,3-b]pyridin-3-ylmethyl)-pyrimidin-2-yl]-(5-fluoro-2-methoxy-pyridin-3-ylmethyl)-amine] | >20 | < 0.1 µM |  | > 0.1 µM | 
Cc1cnc2[nH]cc(Cc3ccc(NCc4cnccc4C(F)(F)F)nc3)c2c1 [Compound P-2070, [5-(5-Methyl-1H-pyrrolo[2,3-b]pyridin-3-ylmethyl)-pyridin-2-yl]-(4-trifluoromethyl-pyridin-3-ylmethyl)-amine] | >20 |  |  | > 0.1 µM | < 0.1 µM
COc1cc(CNc2ccc(Cc3c[nH]c4ncc(C)cc34)c(F)n2)c(F)cn1 [Compound P-2071, (5-Fluoro-2-methoxy-pyridin-4-ylmethyl)-[6-fluoro-5-(5-methyl-1H-pyrrolo[2,3-b]pyridin-3-ylmethyl)-pyridin-2-yl]-amine] | >20 | > 0.1 µM |  | > 0.1 µM | 
COc1ncc(CNc2ncc(Cc3c[nH]c4ncc(C)cc34)cn2)cc1F [Compound P-2073, (5-Fluoro-6-methoxy-pyridin-3-ylmethyl)-[5-(5-methyl-1H-pyrrolo[2,3-b]pyridin-3-ylmethyl)-pyrimidin-2-yl]-amine] | >20 | < 0.1 µM |  | > 0.1 µM | 
Cc1cnc2[nH]cc(Cc3cnc(NCc4ccc(Cl)nc4)nc3)c2c1 [Compound P-2078, (6-Chloro-pyridin-3-ylmethyl)-[5-(5-methyl-1H-pyrrolo[2,3-b]pyridin-3-ylmethyl)-pyrimidin-2-yl]-amine] | >20 | < 0.1 µM |  | > 0.1 µM | 
Cc1cnc2[nH]cc(Cc3cnc(NCc4cccc(C)n4)nc3)c2c1 [Compound P-2079, (6-Methyl-pyridin-2-ylmethyl)-[5-(5-methyl-1H-pyrrolo[2,3-b]pyridin-3-ylmethyl)-pyrimidin-2-yl]-amine] | <20 | < 0.1 µM |  | > 0.1 µM | 
Cc1cnc2[nH]cc(Cc3cnc(NCc4cccc(N5CCOCC5)n4)nc3)c2c1 [Compound P-2081, [5-(5-Methyl-1H-pyrrolo[2,3-b]pyridin-3-ylmethyl)-pyrimidin-2-yl]-(6-morpholin-4-yl-pyridin-2-ylmethyl)-amine] | <20 | > 0.1 µM |  | > 0.1 µM | 
Cc1cnc2[nH]cc(Cc3cnc(NCc4cccc(N5CCCC5)n4)nc3)c2c1 [Compound P-2082, [5-(5-Methyl-1H-pyrrolo[2,3-b]pyridin-3-ylmethyl)-pyrimidin-2-yl]-(6-pyrrolidin-1-yl-pyridin-2-ylmethyl)-amine] | <20 | < 0.1 µM |  | > 0.1 µM | 
